Data from PubChem BioAssay (NCI).
Values joined by “and” are separate entries in the source; they are usually repeats but may differ in a detail not shown here. Equal entries are not always repeated.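 Following 48 hours of exposure in 96-well plates, responses at five concentrations were used to interpolate endpoints linearly. The concentration for 50% growth inhibition is given as GI50. At the TGI there is no net growth.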

Assays:
Experiment in all cases: NCI-60 cell line screen, 48 h
TK-10 renal = tested on: TK-10 renal
K-562 leukemia = tested on: K-562 leukemia
SK-OV-3 ovarian = tested on: SK-OV-3 ovarian
SNB-75 CNS = tested on: SNB-75 CNS
CCRF-CEM leukemia = tested on: CCRF-CEM leukemia
SF-539 CNS = tested on: SF-539 CNS
NCI-H226 lung = tested on: NCI-H226 lung
HOP-62 NSCLC = tested on: HOP-62 NSCLC
SK-MEL-2 melanoma = tested on: SK-MEL-2 melanoma
A498 renal = tested on: A498 renal

COc1ccc(-c2cn(-c3ccccc3)c(-c3ccccc3)n2)cc1OC
GI50 (TK-10 renal): 12.2 µM | TGI (TK-10 renal): 26.1 µM | GI50 (K-562 leukemia): 3.21 µM | TGI (K-562 leukemia): > 100 µM | GI50 (SK-OV-3 ovarian): 7.44 µM | TGI (SK-OV-3 ovarian): 20.9 µM | GI50 (SNB-75 CNS): 13.6 µM | TGI (SNB-75 CNS): 28.5 µM | GI50 (CCRF-CEM leukemia): 2.16 µM | TGI (CCRF-CEM leukemia): 5.98 µM | GI50 (SF-539 CNS): 2.14 µM | TGI (SF-539 CNS): 6.16 µM | GI50 (NCI-H226 lung): 15 µM | TGI (NCI-H226 lung): 40.3 µM | GI50 (HOP-62 NSCLC): 4.44 µM | TGI (HOP-62 NSCLC): 17.9 µM | GI50 (SK-MEL-2 melanoma): 7.06 µM | TGI (SK-MEL-2 melanoma): 22.5 µM | GI50 (A498 renal): 18.7 µM | TGI (A498 renal): 34.8 µM

COc1ccc(O)c(C#N)c1C#N
TGI (TK-10 renal): > 100 µM | TGI (K-562 leukemia): > 100 µM | TGI (SK-OV-3 ovarian): > 100 µM | TGI (SNB-75 CNS): > 100 µM | TGI (CCRF-CEM leukemia): > 100 µM | TGI (SF-539 CNS): > 100 µM | TGI (NCI-H226 lung): > 100 µM | TGI (HOP-62 NSCLC): > 100 µM | TGI (SK-MEL-2 melanoma): > 100 µM | TGI (A498 renal): > 100 µM

CN(C)CCOc1ccc2c(c1)C/C(=C/c1ncc([N+](=O)[O-])n1C)C2=O
TGI (TK-10 renal): 10.9 µM | TGI (K-562 leukemia): > 20 µM | TGI (SK-OV-3 ovarian): 15 µM | TGI (SNB-75 CNS): 7.54 µM | TGI (CCRF-CEM leukemia): 15.1 µM | TGI (SF-539 CNS): 21.2 µM | TGI (NCI-H226 lung): 4.52 µM | TGI (HOP-62 NSCLC): 11.4 µM | TGI (SK-MEL-2 melanoma): 3.58 µM | TGI (A498 renal): 5.54 µM

Cn1ccnc1C(=O)/C=C/c1ccc(CC(=O)Nc2ccccc2)cc1
GI50 (TK-10 renal): 7.44 µM | TGI (TK-10 renal): 19.9 µM | GI50 (K-562 leukemia): 1.07 µM | TGI (K-562 leukemia): > 25 µM | GI50 (SK-OV-3 ovarian): 9.3 µM | TGI (SK-OV-3 ovarian): > 25 µM | GI50 (SNB-75 CNS): > 25 µM | TGI (SNB-75 CNS): > 25 µM | GI50 (CCRF-CEM leukemia): 2.37 µM | TGI (CCRF-CEM leukemia): > 25 µM | GI50 (SF-539 CNS): 2.43 µM | TGI (SF-539 CNS): 7.52 µM | GI50 (NCI-H226 lung): 8.59 µM | TGI (NCI-H226 lung): > 25 µM | GI50 (HOP-62 NSCLC): 3.75 µM | TGI (HOP-62 NSCLC): 20.8 µM | GI50 (SK-MEL-2 melanoma): 5.06 µM | TGI (SK-MEL-2 melanoma): 13.3 µM | GI50 (A498 renal): 6.08 µM | TGI (A498 renal): 14.5 µM

Cc1cc(C(C#N)c2ccc(Cl)cc2)c(Cl)cc1NC(=O)c1cc(I)cc(I)c1O (centres undefined)
GI50 (TK-10 renal): 11.8 µM and 22.4 µM | TGI (TK-10 renal): 33.9 µM and 65.4 µM | GI50 (K-562 leukemia): 15.5 µM | TGI (K-562 leukemia): 47.5 µM | GI50 (SK-OV-3 ovarian): 15.6 µM and 15.8 µM | TGI (SK-OV-3 ovarian): 29.2 µM and 29.5 µM | GI50 (SNB-75 CNS): 12.3 µM and 6.96 µM | TGI (SNB-75 CNS): 41.5 µM and 25.6 µM | GI50 (CCRF-CEM leukemia): 3.87 µM and 17.8 µM | TGI (CCRF-CEM leukemia): 17 µM and 47.1 µM | GI50 (SF-539 CNS): 8.18 µM and 13.2 µM | TGI (SF-539 CNS): 23.2 µM and 32.4 µM | GI50 (NCI-H226 lung): 11.9 µM | TGI (NCI-H226 lung): 43.4 µM | GI50 (HOP-62 NSCLC): 13.9 µM and 15.2 µM | TGI (HOP-62 NSCLC): 34.4 µM and 32.4 µM | GI50 (SK-MEL-2 melanoma): 7.82 µM and 14.9 µM | TGI (SK-MEL-2 melanoma): > 100 µM and 40 µM | GI50 (A498 renal): 11.2 µM | TGI (A498 renal): 29.9 µM

Cc1cccc(C(C)C)c1NC(=O)C(=O)CC(=O)c1c(C)n([O-])c2ccccc2[n+]1=O
TGI (TK-10 renal): > 100 µM | TGI (K-562 leukemia): > 100 µM | TGI (SK-OV-3 ovarian): > 100 µM | TGI (SNB-75 CNS): 71.1 µM | TGI (CCRF-CEM leukemia): 99.7 µM | TGI (SF-539 CNS): 83.8 µM | TGI (NCI-H226 lung): > 100 µM | TGI (HOP-62 NSCLC): > 100 µM | TGI (SK-MEL-2 melanoma): 98.1 µM | TGI (A498 renal): > 100 µM

CCOC(=O)NN1C(=O)C(=P(c2ccccc2)(c2ccccc2)c2ccccc2)C(C(=O)OCC)=C1C
TGI (TK-10 renal): > 100 µM | TGI (K-562 leukemia): > 100 µM | TGI (SK-OV-3 ovarian): > 100 µM | TGI (SNB-75 CNS): > 100 µM | TGI (CCRF-CEM leukemia): > 100 µM | TGI (SF-539 CNS): > 100 µM | TGI (NCI-H226 lung): > 100 µM | TGI (HOP-62 NSCLC): > 100 µM | TGI (SK-MEL-2 melanoma): > 100 µM | TGI (A498 renal): > 100 µM

CCCCCCCCCCCCCCCCCCCCCC(=O)Nc1ccn(C2OC(CO)C(O)C2O)c(=O)n1 (centres undefined)
TGI (TK-10 renal): > 100 µM | TGI (K-562 leukemia): > 100 µM | TGI (SK-OV-3 ovarian): > 100 µM | TGI (SNB-75 CNS): > 100 µM | TGI (CCRF-CEM leukemia): > 40.7 µM | TGI (SF-539 CNS): > 100 µM | TGI (NCI-H226 lung): > 100 µM | TGI (HOP-62 NSCLC): > 57.6 µM | TGI (SK-MEL-2 melanoma): > 100 µM | TGI (A498 renal): > 100 µM

COc1cc(-c2cn(-c3ccc(Cl)cc3)c(C)c2C(=O)C(F)(F)F)cc(OC)c1OC
GI50 (TK-10 renal): > 100 µM | TGI (TK-10 renal): > 100 µM | GI50 (K-562 leukemia): 22.7 µM | TGI (K-562 leukemia): > 100 µM | GI50 (SK-OV-3 ovarian): > 100 µM | TGI (SK-OV-3 ovarian): > 100 µM | GI50 (SNB-75 CNS): 56.9 µM | TGI (SNB-75 CNS): > 100 µM | GI50 (CCRF-CEM leukemia): 16.1 µM | TGI (CCRF-CEM leukemia): > 100 µM | GI50 (SF-539 CNS): > 100 µM | TGI (SF-539 CNS): > 100 µM | GI50 (NCI-H226 lung): > 100 µM | TGI (NCI-H226 lung): > 100 µM | GI50 (HOP-62 NSCLC): > 100 µM | TGI (HOP-62 NSCLC): > 100 µM | GI50 (SK-MEL-2 melanoma): > 100 µM | TGI (SK-MEL-2 melanoma): > 100 µM | GI50 (A498 renal): 27.2 µM | TGI (A498 renal): > 100 µM

S=c1[nH]c2ccc(Br)cc2c(=S)n1-c1ccccc1
TGI (TK-10 renal): > 100 µM | TGI (K-562 leukemia): > 100 µM | TGI (SK-OV-3 ovarian): 85.6 µM | TGI (SNB-75 CNS): 79.1 µM | TGI (CCRF-CEM leukemia): > 100 µM | TGI (SF-539 CNS): 44.4 µM | TGI (NCI-H226 lung): 83.6 µM | TGI (HOP-62 NSCLC): 47 µM | TGI (SK-MEL-2 melanoma): 43.7 µM | TGI (A498 renal): 98.4 µM

COc1cc[nH]c1/C=C1\C(=O)Nc2ccc(F)c(I)c21
GI50 (TK-10 renal): > 25 µM | TGI (TK-10 renal): > 25 µM | GI50 (K-562 leukemia): > 25 µM | TGI (K-562 leukemia): > 25 µM | GI50 (SK-OV-3 ovarian): > 25 µM | TGI (SK-OV-3 ovarian): > 25 µM | GI50 (SNB-75 CNS): > 25 µM | TGI (SNB-75 CNS): > 25 µM | GI50 (CCRF-CEM leukemia): > 25 µM | TGI (CCRF-CEM leukemia): > 25 µM | GI50 (SF-539 CNS): > 25 µM | TGI (SF-539 CNS): > 25 µM | GI50 (NCI-H226 lung): > 25 µM | TGI (NCI-H226 lung): > 25 µM | GI50 (HOP-62 NSCLC): > 25 µM | TGI (HOP-62 NSCLC): > 25 µM | GI50 (SK-MEL-2 melanoma): > 25 µM | TGI (SK-MEL-2 melanoma): > 25 µM | GI50 (A498 renal): > 25 µM | TGI (A498 renal): > 25 µM

CN(C)C(=S)N=Nc1c(O)[nH]c2ccccc12
GI50 (TK-10 renal): 0.721 µM | TGI (TK-10 renal): 14.7 µM | GI50 (K-562 leukemia): 0.475 µM | TGI (K-562 leukemia): > 57.8 µM | GI50 (SK-OV-3 ovarian): 0.79 µM | TGI (SK-OV-3 ovarian): 13.9 µM | GI50 (SNB-75 CNS): 3.01 µM | TGI (SNB-75 CNS): 18.5 µM | GI50 (CCRF-CEM leukemia): 0.298 µM | GI50 (SF-539 CNS): 0.499 µM | TGI (SF-539 CNS): 8.39 µM | GI50 (NCI-H226 lung): 0.642 µM | TGI (NCI-H226 lung): 6.43 µM | GI50 (HOP-62 NSCLC): 0.708 µM | TGI (HOP-62 NSCLC): 14.7 µM | GI50 (SK-MEL-2 melanoma): 0.8 µM | TGI (SK-MEL-2 melanoma): 19.8 µM | GI50 (A498 renal): 6.28 µM | TGI (A498 renal): 20.4 µM
